Test results as given in patent US11440923B2, “Substituted macrocyclic indole derivatives” (Bayer Aktiengesellschaft, priority 2017, dated 2022).
Counter-ions that a name gives are not always drawn. Like-named read-outs stand apart in the source and are kept apart here.

Legend:
Format in all cases: cell-based
[1] = test system: SUDHL5 cells; experiment: Induction of caspase-3/7 activity in SUDHL5 cells (Assay 4)
Description: (§1) Induction of Caspase-3/7 Activity Upon Treatment of Cells with Selected Compounds
(§2) The BH3-domain of MCL-1 sequesters pro-apoptotic proteins, thereby inhibiting apoptosis. In contrast, MCL-1 inhibitors are expected to antagonize this effect leading to an increase in apoptosis, which can be determined by measuring the activity of caspase-3/7.
(§3) The activity of caspase-3/7 was determined in DLBCL (Diffuse large B-cell lymphoma) cell lines (SUDHL5 and SUDHL10) upon treatment with different compounds, using the Caspase-Glo® 3/7 reagent from Promega (G8092).
(§4) As a control, medium without cells was also added to the plate. Cells were incubated in a humidified incubator at 37° C. overnight.
(§5) Rim wells were excluded. The cells were incubated for 3 h hours in a humidified incubator at 37° C. After this incubation, 30 μL of Caspase-Glo® 3/7 reagent (Promega G8092) was added to each well using the Multidrop Combi Reagent Dispenser, followed by 1 h incubation at 37° C. Finally, luminescence was read at 0.1 ms, with a gain of 3000 using the PHERAstar FS microplate reader (BMG Labtech).
(§6) For the evaluation of the results, the background measured with “medium-only” was subtracted from all other values. Then, the values were normalized to DMSO-only treated cells (every value was divided by the mean of the DMSO control).

[2] = test system: SUDHL10 cells; experiment: Induction of caspase-3/7 activity in SUDHL10 cells (Assay 4)
Description: as §1, §2, §3, §4, §5, §6

[3] = test system: SUDHL5 cells; experiment: Induction of cytotoxicity in SUDHL5 cells (Assay 6); settings: 5 h, CellTiter-Glo, read-out: Cytotox SUDHL5 IC50 (median)
Description: Assay 6 Induction of Cytotoxicity Upon Treatment of Cells with Selected Compounds
In principle, compounds that induce apoptosis will concomitantly induce cell cytotoxicity. Therefore, cytotoxicity assays were run in parallel in SUDHL5 and SUDHL10 cells.
As a control, medium without cells was also added to the plate. Cells were incubated in a humidified incubator at 37° C. overnight. […] Rim wells were excluded. The cells were incubated for 5 h hours in a humidified incubator at 37° C. After this incubation, 30 μL of CellTiter-Glo® Luminescent Cell Viability reagent (Promega, G7573) was added to each well using the Multidrop Combi Reagent Dispenser, followed by 15 min incubation on a shaker at room temperature. Finally, luminescence was read at 0.1 ms, with a gain of 3000 using the PHERAstar FS microplate reader (BMG Labtech).

[4] = test system: AMO-1 cells; experiment: Antiproliferation assay AMO-1 (Assay 7)
Description: (§7) Assessment of the Anti-Proliferative Effect of Compounds in Different Cell Lines
(§8) The impact of compounds on the proliferation of different cell lines was assessed using the CellTiter-Glo® Luminescent Cell Viability reagent from Promega (G7573).
(§9) In parallel, cells were plated in a reference (day 0) plate for time zero determination. Cells were incubated in a humidified incubator at 37° C. overnight.
(§10) Rim wells were excluded. The cells were incubated for 72 h hours in a humidified incubator at 37° C. The day 0 plate was measured by adding 30 μL/well of CTG solution (CellTiter-Glo® Luminescent Cell Viability reagent, Promega G7573) to time zero wells in the reference plate followed by a 10 minutes incubation and luminescence reading at 0.1 ms. using the PHERAstar FS microplate reader (BMG Labtech).
(§11) After 72 h incubation, the treated plates were measured in the same way as the day 0 plate mentioned above. The Bella DRC Master Sheet was used to calculate IC50s, with CI=day 0 values and C0=DMSO control values.

[5] = test system: HMC-1-8 cells; experiment: Antiproliferation assay HMC-1-8 (Assay 7)
Description: as §7, §8, §9, §10, §11

[6] = test system: SUDHL5 cells; experiment: Antiproliferation assay SUDHL5 (Assay 7); settings: 72 h, CellTiter-Glo, read-out: Antiproli SUDHL5 IC50 (median)
Description: as §7, §8, §9, §10, §11

[7] = caspase-3/7 induction, 3 h; read-out: Caspase SUDHL5 EC50 (median)
[8] = caspase-3/7 induction, 3 h; read-out: Caspase SUDHL10 EC50 (median)
[9] = 72 h, CellTiter-Glo; read-out: Antiproli AMO-1 IC50 median
[10] = 72 h, CellTiter-Glo; read-out: Antiproli HMC-1-8 IC50 median

| Compound | EC50 ([1]; read-out: Caspase SUDHL5 EC50 (median); caspase-3/7 induction, 3 h) | EC50 ([2]; read-out: Caspase SUDHL10 EC50 (median); caspase-3/7 induction, 3 h) | IC50 [3] | IC50 ([4]; read-out: Antiproli AMO-1 IC50 median; 72 h, CellTiter-Glo) | IC50 ([5]; read-out: Antiproli HMC-1-8 IC50 median; 72 h, CellTiter-Glo) | EC50 [1, 7] | EC50 [2, 8] | IC50 [6] | IC50 [4, 9] | IC50 [5, 10] | EC50 ([1]; Homo sapiens, SU-DHL-5, 3 h, caspase-3/7 induction, 3 h; read-out: Caspase SUDHL5 EC50 (median)) | EC50 ([2]; Homo sapiens, SU-DHL10, 3 h, caspase-3/7 induction, 3 h; read-out: Caspase SUDHL10 EC50 (median)) | IC50 ([3]; Homo sapiens, SU-DHL-5, 5 h) | IC50 ([6]; Homo sapiens, SU-DHL-5, 72 h) | IC50 ([4]; Homo sapiens, AMO1, 72 h, 72 h, CellTiter-Glo; read-out: Antiproli AMO-1 IC50 median) | IC50 ([5]; 72 h, CellTiter-Glo, read-out: Antiproli HMC-1-8 IC50 median) |
| --- | --- | --- | --- | --- | --- | --- | --- | --- | --- | --- | --- | --- | --- | --- | --- | --- |
| CCc1c2c(nn1C)C(CCN1CCN(C)CC1)OCCCCn1c(C(=O)O)c(CCCOc3cccc4cc(F)ccc34)c3ccc(Cl)c-2c31 (single isomer, unassigned; stereoisomer 3) [Example 72, (−)-4-chloro-3-ethyl-7-{3-[(6-fluoronaphthalen-1-yl)oxy]propyl}-2-methyl-15-[2-(4-methylpiperazin-1-yl)ethyl]-2,10,11,12,13,15-hexahydropyrazolo[4′,3′:9,10][1,6]oxazacycloundecino[8,7,6-hi]indole-8-carboxylic Acid—N-ethylethanamine Salt (Stereoisomer 3)] | 74 nM | 54 nM | 96 nM | 107 nM | 2290 nM | – | – | – | – | – | – | – | – | – | – | – |
| CCc1c2c(nn1C)C(CCN1CCOCC1)OCC(F)(F)CCn1c(C(=O)O)c(CCCOc3cccc4cc(F)ccc34)c3ccc(Cl)c-2c31 (centres unmarked) [Example 86, 4-chloro-3-ethyl-12,12-difluoro-7-{3-[(6-fluoronaphthalen-1-yl)oxy]propyl}-2-methyl-15-[2-(morpholin-4-yl)ethyl]-2,10,11,12,13,15-hexahydropyrazolo[4′,3′:9,10][1,6]oxazacycloundecino[8,7,6-hi]indole-8-carboxylic Acid] | – | – | 150 nM | – | – | 100 nM | 140 nM | 200 nM | 193 nM | 1590 nM | – | – | – | – | – | – |
| CCc1c2c(nn1C)C(CCN1CCOCC1)N(C)CCCCn1c(C(=O)O)c(CCCOc3cccc4cc(F)ccc34)c3ccc(Cl)c-2c31 (racemic) [Example 93, (rac)-4-chloro-3-ethyl-7-{3-[(6-fluoro-1-naphthyl)oxy]propyl}-2,14-dimethyl-(15-rac)-[2-(morpholin-4-yl)ethyl]-10,11,12,13,14,15-hexahydro-2H-pyrazolo[3′,4′:8,9][1,6]diazacycloundecino[10,11,1-hi]indole-8-carboxylic Acid] | – | – | 27 nM | – | – | 20 nM | 23 nM | 20 nM | 58.9 nM | 558 nM | – | – | – | – | – | – |
| CCc1c2c(nn1C)C(CCN1CCOCC1)N(C)CCCCn1c(C(=O)O)c(CCCOc3cccc4cc(F)ccc34)c3ccc(Cl)c-2c31 (centres unmarked) [Example 98, 4-chloro-3-ethyl-7-{3-[(6-fluoronaphthalen-1-yl)oxy]propyl}-2,14-dimethyl-15-[2-(morpholin-4-yl)ethyl]-10,11,12,13,14,15-hexahydro-2H-pyrazolo[3′,4′:8,9][1,6]diazacycloundecino[10,11,1-hi]indole-8-carboxylic Acid—N-ethylethanamine Salt] | – | – | 1400 nM | – | – | 1000 nM | 1500 nM | 1200 nM | 860 nM | 11500 nM | – | – | – | – | – | – |
| CCc1c2c(nn1C)C(CCN1CCN(C)CC1)OCCCCn1c(C(=O)O)c(CCCOc3cccc4cc(F)ccc34)c3ccc(Cl)c-2c31 (single isomer, unassigned; stereoisomer 4) [Example 73, (−)-4-chloro-3-ethyl-7-{3-[(6-fluoronaphthalen-1-yl)oxy]propyl}-2-methyl-15-[2-(4-methylpiperazin-1-yl)ethyl]-2,10,11,12,13,15-hexahydropyrazolo[4′,3′:9,10][1,6]oxazacycloundecino[8,7,6-hi]indole-8-carboxylic Acid (Stereoisomer 4)] | – | – | – | – | – | – | – | – | – | – | 5200 nM | 8800 nM | 7700 nM | 6100 nM | 3840 nM | > 33000 nM |
| CCc1c2c(nn1C)C(CCN1CCOCC1)OCC(F)(F)CCn1c(C(=O)O)c(CCCOc3cccc4cc(F)ccc34)c3ccc(Cl)c-2c31 (single isomer, unassigned; (-)) [Example 88, (−)-4-chloro-3-ethyl-12,12-difluoro-7-{3-[(6-fluoronaphthalen-1-yl)oxy]propyl}-2-methyl-15-[2-(morpholin-4-yl)ethyl]-2,10,11,12,13,15-hexahydropyrazolo[4′,3′:9,10][1,6]oxazacycloundecino[8,7,6-hi]indole-8-carboxylic Acid] | – | – | 760 nM | – | – | 560 nM | 1100 nM | 570 nM | 1350 nM | 3120 nM | – | – | – | – | – | – |
| CCc1c2c(nn1C)C(CCN1CCOCC1)N(C)CCCCn1c(C(=O)O)c(CCCOc3cccc4cc(F)ccc34)c3ccc(Cl)c-2c31 (single isomer, unassigned) [Example 95, 4-chloro-3-ethyl-7-{3-[(6-fluoronaphthalen-1-yl)oxy]propyl}-2,14-dimethyl-15-[2-(morpholin-4-yl)ethyl]-10,11,12,13,14,15-hexahydro-2H-pyrazolo[3′,4′:8,9][1,6]diazacycloundecino[10,11,1-hi]indole-8-carboxylic Acid] | – | – | 2200 nM | – | – | 1500 nM | 3500 nM | 2300 nM | 4300 nM | 8220 nM | – | – | – | – | – | – |
| CCc1c2c(nn1C)C(CCN1CCOCC1)N(C)CCCCn1c(C(=O)O)c(CCCOc3cccc4cc(F)ccc34)c3ccc(Cl)c-2c31 (racemic) [Example 96, (rac)-4-chloro-3-ethyl-7-{3-[(6-fluoro-1-naphthyl)oxy]propyl}-2,14-dimethyl-15-(rac)-[2-(morpholin-4-yl)ethyl]-10,11,12,13,14,15-hexahydro-2H-pyrazolo[3′,4′:8,9][1,6]diazacycloundecino[10,11,1-hi]indole-8-carboxylic Acid] | – | – | 25 nM | – | – | 19 nM | 28 nM | 30 nM | – | 726 nM | – | – | – | – | – | – |
| CCc1c2c(nn1C)C(CCN1CCOCC1)N(C)CCCCn1c(C(=O)O)c(CCCOc3cccc4cc(F)ccc34)c3ccc(Cl)c-2c31 (centres unmarked) [Example 97, 4-chloro-3-ethyl-7-{3-[(6-fluoronaphthalen-1-yl)oxy]propyl}-2,14-dimethyl-15-[2-(morpholin-4-yl)ethyl]-10,11,12,13,14,15-hexahydro-2H-pyrazolo[3′,4′:8,9][1,6]diazacycloundecino[10,11,1-hi]indole-8-carboxylic Acid—N-ethylethanamine Salt] | – | – | – | – | – | 11 nM | 11 nM | 12 nM | 16.3 nM | 405 nM | – | – | – | – | – | – |
| CCc1c2c(nn1C)C(CCN1CCOCC1)OCC(F)(F)CCn1c(C(=O)O)c(CCCOc3cccc4cc(F)ccc34)c3ccc(Cl)c-2c31 (centres unmarked) [Example 89, 4-chloro-3-ethyl-12,12-difluoro-7-{3-[(6-fluoronaphthalen-1-yl)oxy]propyl}-2-methyl-15-[2-(morpholin-4-yl)ethyl]-2,10,11,12,13,15-hexahydropyrazolo[4′,3′:9,10][1,6]oxazacycloundecino[8,7,6-hi]indole-8-carboxylic Acid] | – | – | – | – | – | 30 nM | 30 nM | 36 nM | 29.5 nM | 765 nM | – | – | – | – | – | – |
